Laboratory results as given in patent US8377967B2, “Piperidine derivative” (Nippon Zoki Pharmaceutical Co., Ltd., priority 2008, dated 2013).
pIC50: −log10 of the molar value. Where a name gives a salt, the structure may show the parent alone.

Tests used:
[1] = system: histamine-induced vascular hyperpermeability reaction; experiment: Rat histamine-induced vascular hyperpermeability reaction (in vivo antihistamine action); conditions: SD male rat, oral administration 1 hour before intracutaneous histamine, leaked Evans Blue pigment
Experimental: An SD male rat (SPF) of 180 g in weight was previously fed for one week or more by allowing the rat to take a solid feed and tap water ad libitum, under the environment setting of a temperature of 22° C., humidity of 55% and an artificial illumination of 12 hours a day (light phase 8 am to 8 pm), and the rat was fasted overnight to be used for the experiment. Histamine•dihydrochloride (hereinafter referred to as histamine) and Evans Blue were used by dissolving each in physiological saline upon use. A substance to be tested was dissolved in water for injection or suspended in 0.5% carboxymethyl cellulose sodium, and the rat was orally administered with the solution or suspension (dose volume: 5 mL/kg body weight). After 1 hour from the administration, the physiological saline and the histamine solution were each intracutaneously injected to two locations (20 μg/0.05 ml/location) each on a back part of the rat of which hair was sheared with an electric clipper while anesthetizing with an ether. A 0.5% Evans Blue-containing physiological saline was injected intravenously to the tail of the rat (1 mL/200 g body weight) immediately before the intracutaneous injection of the histamine.
After 30 minutes, the animal was decapitated, and allowed to bleed lethally, and the skin was removed to measure an amount of leaked pigment in the blue-stained portion. The measurement of the amount of leaked pigment was carried out as follows. Skins of the pigment leaking site were cut out at two locations, 1 mL of a 2 mol/L aqueous potassium hydroxide solution was added thereto in a test tube, and the test tube was allowed to stand overnight at 37° C. to dissolve. Thereafter, 6 mL of a 1:3 mixed solution of 0.67 mol/L phosphoric acid and acetone was added to the solution, and the mixture was vigorously shaken for 10 minutes. Thereafter, the mixture was filtered, and the absorbance of the filtrate at 620 nm was measured. The absorbance obtained from the two locations of the sites injected with physiological saline, as blank value, was used for a compensation. The amount of leaked pigment was calculated from the calibration curve of Evans Blue at 620 nm.

cerebral H1 receptor = target: T1, cerebral H1 receptor (Mus musculus, UniProt P70174); experiment: Murine cerebral H1 receptor occupying content (ex vivo); format: in vivo; conditions: for ED50: ICR male mouse, oral administration, brain excised after 1 hour, 3H-pyrilamine binding in brain homogenate, larger = lower brain transfer, read-out: ID50 (the source's name); for ID50 (mg/kg)/ ED50 (mg/kg): ID50 of cerebral receptor binding test (Table 20) divided by ED50 of vascular hyperpermeability test (Table 19)
T1 construct: the entire brain, except for cerebellum and medulla oblongatae, was rapidly excised; from tissue; host or cells: brain homogenate (without cerebellum and medulla oblongata) of orally dosed ICR male mice
T1 sequence (P70174 whole entry): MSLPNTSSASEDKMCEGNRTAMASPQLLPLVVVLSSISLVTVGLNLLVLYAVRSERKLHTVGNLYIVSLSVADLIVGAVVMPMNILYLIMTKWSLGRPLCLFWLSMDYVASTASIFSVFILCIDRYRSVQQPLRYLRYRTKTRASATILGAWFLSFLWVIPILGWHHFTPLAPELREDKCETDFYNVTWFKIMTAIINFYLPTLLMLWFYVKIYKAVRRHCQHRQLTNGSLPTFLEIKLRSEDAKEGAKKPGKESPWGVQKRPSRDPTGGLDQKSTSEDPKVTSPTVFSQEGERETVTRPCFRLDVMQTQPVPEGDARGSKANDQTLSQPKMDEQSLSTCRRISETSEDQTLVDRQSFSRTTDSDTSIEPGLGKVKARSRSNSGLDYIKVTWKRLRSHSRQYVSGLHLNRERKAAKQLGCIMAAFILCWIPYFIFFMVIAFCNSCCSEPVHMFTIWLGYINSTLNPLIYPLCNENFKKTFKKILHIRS
Experimental: A 6-week-old ICR male mouse was previously fed for one week or more by allowing the mouse to take a solid feed and tap water ad libitum, under the environment setting of a temperature of 22° C., humidity of 55% and an artificial illumination of 12 hours a day, and the mouse was fasted overnight to be used for the experiment. A substance to be tested was dissolved with water for injection or suspended in 0.5% carboxymethyl cellulose solution, and the solution or suspension was orally administered to the mouse (dose volume: 0.1 mL/10 g body weight). After 1 hour from the oral administration, the mouse was decapitated, and the entire brain, except for cerebellum and medulla oblongatae, was rapidly excised. The excised brain tissue was homogenized with Polytron (manufactured by Kinematica) in an ice-cooled 50 mmol/L phosphate buffered saline (pH 7.4, 100 mg/1.9 mL).
To a test tube for reaction (TPX-Tube) were added 180 μL of the brain homogenate, and 10 μL of ^3H-pyrilamine solution (final concentration: 2 nmol/L) and 10 μL of a non-labeled pyrilamine solution (final concentration: 200 μmol/L) or a 50 mmol/L phosphate buffered saline, and the mixture was incubated at room temperature for 45 minutes, and 2.0 mL of an ice-cooled, 50 mmol/L phosphate buffered saline was then added thereto to stop the reaction. The reaction mixture was filtered with a GF/B filter (manufactured by […]), and the […] was placed in a vial and dried overnight at 60 degrees. After drying, 10 mL of a scintillator (AL-1, toluene-based, manufactured by DOJINDO LABORATORIES) was added to the product, and the disintegration per minute (dpm) was measured with a liquid scintillation counter (manufactured by Packard, U.S.A., TRI-CARB 2700TR) (5 minutes/vial).

[2] = target: human histamine H1 receptor (Homo sapiens, UniProt P35367); experiment: In vitro human histamine H1 receptor binding experiment ([3H]pyrilamine); conditions: HEK293A cells stably expressing human histamine H1 receptor, [3H]pyrilamine 3 nmol/L, room temperature 60 minutes
Chain of human histamine H1 receptor (P35367 whole entry): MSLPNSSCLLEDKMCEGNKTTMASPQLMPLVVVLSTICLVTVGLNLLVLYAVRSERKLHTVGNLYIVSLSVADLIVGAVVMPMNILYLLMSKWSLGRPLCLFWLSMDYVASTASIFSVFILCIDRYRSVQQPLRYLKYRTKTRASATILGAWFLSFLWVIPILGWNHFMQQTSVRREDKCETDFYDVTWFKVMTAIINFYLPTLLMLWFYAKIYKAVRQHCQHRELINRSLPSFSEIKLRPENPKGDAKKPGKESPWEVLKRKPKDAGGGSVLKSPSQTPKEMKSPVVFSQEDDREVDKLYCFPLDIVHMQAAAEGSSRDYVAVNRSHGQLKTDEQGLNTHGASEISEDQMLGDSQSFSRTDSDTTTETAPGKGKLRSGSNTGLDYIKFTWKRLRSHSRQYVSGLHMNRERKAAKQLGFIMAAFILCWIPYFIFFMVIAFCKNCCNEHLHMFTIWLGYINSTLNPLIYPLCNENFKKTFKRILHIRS
Experimental: Recombinant human histamine H1 receptor plasmid (prepared by Invitrogen) was transfected to HEK293A cells with Lipofectamine 2000 (manufactured by Invitrogen). Cells stably expressing human histamine H1 receptor were screened with Geneticin (manufactured by Invitrogen). The cells were continued to be cultured using a Dulbecco's Modified Eagle Medium containing 10% fetal bovine serum, 0.1 mmol/L MEM Non-Essential Amino Acids Solution, 2 mmol/L L-glutamine and 0.7 mg/mL Geneticin in a 5% CO2 incubator at 37° C. The cells stably expressing human histamine H1 receptor were prepared using 50 mmol/L Tris-HCl (pH 7.5) (hereinafter referred to as buffer) containing 0.1% bovine serum albumin, so as to have a concentration of 3×10^6 cells/mL, to give a cell sample preparation. Fifty microliters of the buffer, 50 μl of a test substance solution at various concentrations, and 50 μL of [^3H]pyrilamine solution (final concentration: 3 nmol/L) were added to each of the wells on the 96-well plate, and stirred, and 100 μL of the cell sample preparation was then added thereto (at a concentration of 3×10^5 cells/well) to initiate the reaction.
The cells were incubated at room temperature for 60 minutes, and then filtered on UniFilter GF/C plate (manufactured by Packard) immersed in 0.5% polyethyleneimine using a cell harvester (IH-110, manufactured by INNOTECH CORPORATION), to stop the reaction, and the plate was washed with the buffer. The plate after washing was sufficiently dried, and 20 μL of a scintillator (MaxiLight, manufactured by Hidex) was added thereto, and count per minute (cpm) was measured with a multi-labeled microplate reader (Plate Chameleo II, manufactured by Hidex). The nonspecific binding was cpm in a case where 30 μmol/L pyrilamine was added. The experiments were carried out at n=3, and at least repeated 3 times.

Structure (SMILES) | ED50 (cerebral H1 receptor) [mg/kg] | ID50 (mg/kg)/ ED50 (mg/kg) (cerebral H1 receptor) | pIC50 [2] | ED50 [1] [mg/kg]
CN1CCC(=C2c3ccccc3CCc3sc(C(=O)O)cc32)CC1.Cl [Compound 4, [4-(1-Methylpiperidin-4-ylidene)-9,10-dihydro-4H-1-thiabenzo[f]azulen-2-yl]carboxylic acid hydrochloride] | 43.1 | 62.5 |  | 0.69
CN1CCC(=C2c3cc(C(=O)O)ccc3OCc3ccsc32)CC1 [Compound 26, [4-(1-Methylpiperidin-4-ylidene)-4,10-dihydro-9-oxa-3-thiabenzo[f]azulen-6-yl]carboxylic acid] | 4.8 | 81.4 |  | 0.059
CN1CCC(=C2c3cc(C=CC(=O)O)ccc3OCc3ccsc32)CC1 [Compound 35, 3-[4-(1-Methylpiperidin-4-ylidene)-4,10-dihydro-9-oxa-3-thiabenzo[f]azulen-6-yl]acrylic acid] | 28.4 | 101.4 |  | 0.28
CN1CCC(=C2c3ccccc3CC(=O)c3sc(C=CC(=O)O)cc32)CC1 [Compound 48, 3-[4-(1-Methylpiperidin-4-ylidene)-10-oxo-9,10-dihydro-4H-1-thiabenzo[f]azulen-2-yl]acrylic acid] | 95.5 | 140.4 |  | 0.68
CN1CCC(=C2c3cc(CC(=O)O)ccc3OCc3ccsc32)CC1.Cl [Compound 54, [4-(1-Methylpiperidin-4-ylidene)-4,10-dihydro-9-oxa-3-thiabenzo[f]azulen-6-yl]acetic acid hydrochloride] | 9.3 | 344.4 |  | 0.027
CN1CCC(=C2c3ccccc3CCc3sc(C(C)(C)C(=O)O)cc32)CC1 [Compound 65, 2-Methyl-2-[4-(1-methylpiperidin-4-ylidene)-9,10-dihydro-4H-1-thiabenzo[f]azulen-2-yl]propionic acid] | 19.5 | 139.3 |  | 0.14
CN1CCC(=C2c3cc(C(C)(C)C(=O)O)ccc3OCc3ccsc32)CC1 [Compound 68, 2-Methyl-2-[4-(1-Methylpiperidin-4-ylidene)-4,10-dihydro-9-oxa-3-thiabenzo[f]azulen-6-yl]propionic acid] | 14.6 | 112.3 |  | 0.13
CCN1CCC(=C2c3ccccc3CCc3sc(C(=O)O)cc32)CC1.Cl [Compound 108, [4-(1-Ethylpiperidin-4-ylidene)-9,10-dihydro-4H-1-thiabenzo[f]azulen-2-yl]carboxylic acid hydrochloride] | 110 | 95.3 |  | 1.16
CCOC(=O)Cc1ccc2c(c1)C(=C1CCNCC1)c1sccc1CO2.Cl [Compound 113, Ethyl (4-piperidin-4-ylidene-4,10-dihydro-9-oxa-3-thiabenzo[f]azulen-6-yl)acetate hydrochloride] | 98.7 | 1370.8 |  | 0.072
CN1CCC(=C2c3cc(CC(=O)O)ccc3OCc3sccc32)CC1 [Compound 117, [4-(1-Methylpiperidin-4-ylidene)-4,10-dihydro-9-oxa-1-thiabenzo[f]azulen-6-yl]acetic acid] | 4.2 | 155.6 |  | 0.027
O=C(O)Cc1ccc2c(c1)C(=C1CCN(CCO)CC1)c1sccc1CO2 [Compound 119, {4-[1-(2-Hydroxyethyl)piperidin-4-ylidene]-4,10-dihydro-9-oxa-3-thiabenzo[f]azulen-6-yl}acetic acid] | 74.5 | 67.7 |  | 1.1
COC(=O)Cc1ccc2c(c1)C(=C1CCNCC1)c1sccc1CO2.Cl [Compound 126, Methyl (4-piperidin-4-ylidene-4,10-dihydro-9-oxa-3-thiabenzo[f]azulen-6-yl)acetate hydrochloride] | 237 | 530.7 |  | 0.446
CN1CCC(=C2c3ccccc3CC(=O)c3sccc32)CC1 [Ketotifen, reference compound] |  |  |  | 0.54

Now from value to molecule, other results behind:

ED50 (cerebral H1 receptor) [mg/kg] | ID50 (mg/kg)/ ED50 (mg/kg) (cerebral H1 receptor) | pIC50 [2] | Structure (SMILES) | ED50 [1] [mg/kg]
7.45 | 74.5 |  | CCN1CCC(=C2c3cc(CC(=O)O)ccc3OCc3ccsc32)CC1 [Compound 128, [4-(1-Ethylpiperidin-4-ylidene)-4,10-dihydro-9-oxa-3-thiabenzo[f]azulen-6-yl]acetic acid] | ~0.1
 |  | 7.14 | CC(OC(=O)OC1CCCCC1)OC(=O)c1cc2c(s1)CCc1ccccc1C2=C1CCN(C)CC1 (stereo not drawn) [Compound 176, 1-Cyclohexyloxycarbonyloxyethyl 4-(1-methylpiperidin-4-ylidene)-9,10-dihydro-4H-1-thiabenzo[f]azulene-2-carboxylate hydrochloride] | 
 |  | 7.89 | CCOCCN1CCC(=C2c3ccccc3CCc3sc(C(=O)OCC)cc32)CC1 [Compound 181, Ethyl 4-[1-(2-ethoxyethyl)piperidin-4-ylidene]-9,10-dihydro-4H-1-thiabenzo[f]azulene-2-carboxylate hydrochloride] | 
 |  | 8.06 | COC(=O)CCCc1ccc2c(c1)C(=C1CCN(CCCC(C)=O)CC1)c1sccc1CO2 [Compound 187, Methyl 4-{4-[1-(4-oxopentyl)piperidin-4-ylidene]-4,10-dihydro-9-oxa-3-thiabenzo[f]azulen-6-yl}butyrate hydrochloride] | 
 |  | 7.88 | COC(=O)Cc1ccc2c(c1)C(=C1CCN(CCCNS(C)(=O)=O)CC1)c1sccc1CO2 [Compound 193, Methyl {4-[1-(3-methanesulfonylaminopropyl)piperidin-4-ylidene]-4,10-dihydro-9-oxa-3-thiabenzo[f]azulen-6-yl}acetate hydrochloride] | 
 |  | 7.93 | COC(=O)CCc1ccc2c(c1)C(=C1CCN(CCNS(C)(=O)=O)CC1)c1sccc1CO2 [Compound 195, Methyl 3-{4-[1-(2-methanesulfonylaminoethyl)piperidin-4-ylidene]-4,10-dihydro-9-oxa-3-thiabenzo[f]azulen-6-yl}propionate hydrochloride] | 
